US8859535B2, “Hydroxy substituted isoquinolinone derivatives” (Novartis AG, priority 2011, dated 2014)

biological target: T1, human MDM2 protein (amino acids 2-188) (Homo sapiens, UniProt Q00987); experiment: p53-MDM2 TR-FRET assay, modified (p53-MDM2 Assay 2); type: binding; settings: 0.1 nM MDM2, 0.1 nM Europium labeled streptavidin; read-out: IC50 (nM) of p53-Hdm2 inhibition (TR-FRET) Assay 2
T1 construct: human MDM2 protein (amino acids 2-188); made in house
Method: Time Resolved Fluorescence Energy Transfer (TR-FRET) Assay
The inhibition of p53-MDM2 and p53-MDM4 interactions is measured by time resolved fluorescence energy transfer (TR-FRET). Fluorescence energy transfer (or Foerster resonance energy transfer) describes an energy transfer between donor and acceptor fluorescent molecules. For this assay, human MDM2 protein (amino acids 2-188) and human MDM4 protein (amino acids 2-185), tagged with a C-terminal biotin moiety, are used in combination with a Europium labeled streptavidin (Perkin Elmer, Inc., Waltham, Mass., USA) serving as the donor fluorophore. The p53 derived, Cy5 labeled peptide Cy5-TFSDLWKLL (p53 aa18-26) is the energy acceptor. Upon excitation of the donor molecule at 340 nm, binding interaction between MDM2 or MDM4 and the p53 peptide induces energy transfer and enhanced response at the acceptor emission wavelength at 665 nm. Disruption of the formation of the p53-MDM2 or p53-MDM4 complex due to an inhibitor molecule binding to the p53 binding site of MDM2 or MDM4 results in increased donor emission at 620 nm. The ratiometric FRET assay readout is calculated from the raw data of the two distinct fluorescence signals measured in time resolved mode (fluorescence 665 nm/fluorescence 620 nm×1000).
After addition of 1.25 nM MDM2-biotinylated or 2.5 nM MDM4-biotinylated (internal preparations), and 0.625 nM Europium labeled streptavidin (Perkin Elmer), the solution is pre-incubated for 15 minutes at room temperature, then 10 nM Cy5-p53 peptide (internal preparation) is added before an incubation at room temperature for 15 minutes prior to reading the plate. For measurement of samples, a Victor II microplate reader (Perkin Elmer) is used with the following settings: Excitation 340 nm, Emission Donor 620 nm and Emission Acceptor 665 nm. IC50 values are calculated by curve fitting using XLfit. If not specified, reagents are purchased from Sigma-Aldrich Chemie GmBH, Buchs, Switzerland.
This assay was used to evaluate compounds displaying inhibition of p53-MDM2 interaction and p53-MDM4 interaction at IC50s of 0.005 to 50 μM (p53-MDM2 Assay 1 and p53-MDM4 Assay 1, respectively). For selected compounds displaying IC50s between […] on MDM2, a slightly modified assay is used with the following adaptations: 0.1 nM MDM2, 0.1 nM Europium labeled streptavidin and Tecan genios Pro is used as a microplate reader for the fluorescence measurements (p53-MDM2 Assay 2).

T1 sequence (Q00987 2-188): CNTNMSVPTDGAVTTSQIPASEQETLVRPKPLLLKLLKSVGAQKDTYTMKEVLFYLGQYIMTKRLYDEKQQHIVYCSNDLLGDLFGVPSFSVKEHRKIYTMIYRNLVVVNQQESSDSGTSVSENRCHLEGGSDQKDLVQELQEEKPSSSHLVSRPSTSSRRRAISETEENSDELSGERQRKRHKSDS

Compound	IC50
[2H]C([2H])([2H])Oc1cc2c(cc1OC(C)C)[C@H](c1ccc(Cl)cc1)N(c1ccc([C@@](C)(O)C3CCS(=O)(=O)CC3)cc1)C(=O)C2 (single isomer, unassigned) [Example 153]	3.16 nM
[2H]C([2H])([2H])Oc1cc2c(cc1OC(C)C)[C@H](c1ccc(Cl)cc1)N(c1ccc([C@](C)(O)C3CCN(C=O)CC3)cc1)C(=O)C2 (single isomer, unassigned) [Example 154]	78.7 nM
[2H]C([2H])([2H])Oc1cc2c(cc1OC(C)C)[C@H](c1ccc(Cl)cc1)N(c1ccc([C@@](C)(O)C3CCN(C=O)CC3)cc1)C(=O)C2 (single isomer, unassigned) [Example 155]	1.23 nM
COc1cc2c(cc1OC(C)C)[C@H](c1ccc(Cl)cc1)N(c1ccc([C@@](C)(O)C3CC(C)(C)OC(C)(C)C3)cc1)C(=O)C2 (single isomer, unassigned) [Example 163]	1.26 nM
COc1cc2c(cc1OC(C)C)[C@H](c1ccc(Cl)cc1)N(c1ccc([C@](C)(O)C3CC(C)(C)OC(C)(C)C3)cc1)C(=O)C2 (single isomer, unassigned) [Example 164]	509 nM
[2H]C([2H])([2H])Oc1cc2c(cc1OC(C)C)[C@H](c1ccc(Cl)cc1)N(c1ccc(C(C)(O)C3CCN(C=O)CC3)cc1)C(=O)C2 (stereo partly drawn) [Example 151, 4-(1-{4-[(S)-1-(4-Chloro-phenyl)-7-isopropoxy-6-d^3-methoxy-3-oxo-3,4-dihydro-1H-isoquinolin-2-yl]-phenyl}-1-hydroxy-ethyl)-piperidine-1-carbaldehyde]	2.09 nM
COc1cc2c(cc1OC(C)C)[C@H](c1ccc(Cl)cc1)N(c1ccc(C(C)(O)C3C4CNCC3COC4)cc1)C(=O)C2 (stereo partly drawn) [Example 156, (S)-1-(4-Chloro-phenyl)-2-{4-[1-hydroxy-1-(3-oxa-7-aza-bicyclo[3.3.1]non-9-yl)-ethyl]-phenyl}-7-isopropoxy-6-methoxy-1,4-dihydro-2H-isoquinolin-3-one]	12.6 nM
COc1cc2c(cc1OC(C)C)[C@H](c1ccc(Cl)cc1)N(c1ccc(C(C)(O)C3C4COCC3CN(C=O)C4)cc1)C(=O)C2 (stereo partly drawn) [Example 157, 9-(1-{4-[(S)-1-(4-Chloro-phenyl)-7-isopropoxy-6-methoxy-3-oxo-3,4-dihydro-1H-isoquinolin-2-yl]-phenyl}-1-hydroxy-ethyl)-3-oxa-7-aza-bicyclo[3.3.1]nonane-7-carbaldehyde]	4.89 nM
CC(C)Oc1cc2c(cc1OC(F)F)CC(=O)N(c1ccc(C(C)(O)C3CCOCC3)cc1)C2c1ccc(Cl)cc1 (stereo not drawn) [Example 165, 1-(4-Chloro-phenyl)-6-difluoromethoxy-2-{4-[1-hydroxy-1-(tetrahydro-pyran-4-yl)-ethyl]-phenyl}-7-isopropoxy-1,4-dihydro-2H-isoquinolin-3-one]	12 nM
COc1cc2c(cc1OC(C)C)[C@H](c1ccc(Cl)cc1)N(c1ccc(C(C)(O)C34CCC(CC3)OC4)cc1)C(=O)C2 (stereo partly drawn) [Example 178, (S)-1-(4-Chloro-phenyl)-2-{4-[1-hydroxy-1-(2-oxa-bicyclo[2.2.2]oct-4-yl)-ethyl]-phenyl}-7-isopropoxy-6-methoxy-1,4-dihydro-2H-isoquinolin-3-one]	1.59 nM

Now from value to compound:

IC50	Compound
0.894 nM	COc1cc2c(cc1OC(C)C)[C@H](c1ccc(Cl)cc1)N(c1ccc([C@@](C)(O)C3CC4CCC(C3)O4)cc1)C(=O)C2 (single isomer, unassigned) [Example 159]
41.9 nM	COc1cc2c(cc1OC(C)C)[C@H](c1ccc(Cl)cc1)N(c1ccc([C@](C)(O)C3CC4CCC(C3)O4)cc1)C(=O)C2 (single isomer, unassigned) [Example 160]
9.18 nM	COc1cc2c(cc1OC(C)C)[C@H](c1ccc(Cl)cc1)N(c1ccc(C(C)(O)C3CN(C4COC4)C3)cc1)C(=O)C2 (stereo partly drawn) [Example 103, (S)-1-(4-Chloro-phenyl)-2-{4-[1-hydroxy-1-(1-oxetan-3-yl-azetidin-3-yl)-ethyl]-phenyl}-7-isopropoxy-6-methoxy-1,4-dihydro-2H-isoquinolin-3-one]
1.47 nM	CNC(=O)N1C2CCCC1CC(C(C)(O)c1ccc(N3C(=O)Cc4cc(OC)c(OC(C)C)cc4[C@@H]3c3ccc(Cl)cc3)cc1)C2 (stereo partly drawn) [Example 119, 3-(1-{4-[(S)-1-(4-Chloro-phenyl)-7-isopropoxy-6-methoxy-3-oxo-3,4-dihydro-1H-isoquinolin-2-yl]-phenyl}-1-hydroxy-ethyl)-9-aza-bicyclo[3.3.1]nonane-9-carboxylic acid methylamide]
4.67 nM	COc1cc2c(cc1OC(C)C)[C@H](c1ccc(Cl)cc1)N(c1ccc(C(C)(O)C3CC4CCCC(C3)N4C3COC3)cc1)C(=O)C2 (stereo partly drawn) [Example 120, (S)-1-(4-Chloro-phenyl)-2-{4-[1-hydroxy-1-(9-oxetan-3-yl-9-aza-bicyclo[3.3.1]non-3-yl)-ethyl]-phenyl}-7-isopropoxy-6-methoxy-1,4-dihydro-2H-isoquinolin-3-one]
3.44 nM	COc1cc2c(cc1OC(C)C)[C@H](c1ccc(Cl)cc1)N(c1ccc(C(C)(O)C3CC4CCCC(C3)N4C(=O)COC(C)=O)cc1)C(=O)C2 (stereo partly drawn) [Example 121, Acetic acid 2-[3-(1-{4-[(S)-1-(4-chloro-phenyl)-7-isopropoxy-6-methoxy-3-oxo-3,4-dihydro-1H-isoquinolin-2-yl]-phenyl}-1-hydroxy-ethyl)-9-aza-bicyclo[3.3.1]non-9-yl]-2-oxo-ethyl ester]
2.31 nM	CCN1C2CCCC1CC(C(C)(O)c1ccc(N3C(=O)Cc4cc(OC)c(OC(C)C)cc4[C@@H]3c3ccc(Cl)cc3)cc1)C2 (stereo partly drawn) [Example 122, (S)-1-(4-Chloro-phenyl)-2-{4-[1-(9-ethyl-9-aza-bicyclo[3.3.1]non-3-yl)-1-hydroxy-ethyl]-phenyl}-7-isopropoxy-6-methoxy-1,4-dihydro-2H-isoquinolin-3-one]
4.2 nM	COc1cc2c(cc1OC(C)C)[C@H](c1ccc(Cl)cc1)N(c1ccc(C(C)(O)C3CC4CCCC(C3)N4C(=O)CO)cc1)C(=O)C2 (stereo partly drawn) [Example 123, (S)-1-(4-Chloro-phenyl)-2-(4-{1-hydroxy-1-[9-(2-hydroxy-acetyl)-9-aza-bicyclo[3.3.1]non-3-yl]-ethyl}-phenyl)-7-isopropoxy-6-methoxy-1,4-dihydro-2H-isoquinolin-3-one]
2.08 nM	COc1cc2c(cc1OC(C)C)[C@H](c1ccc(Cl)cc1)N(c1ccc(C(C)(O)C3CCN(C[C@@H](O)CO)CC3)cc1)C(=O)C2 (stereo partly drawn) [Example 130, (S)-1-(4-Chloro-phenyl)-2-(4-{1-[1-((R)-2,3-dihydroxy-propyl)-piperidin-4-yl]-1-hydroxy-ethyl}-phenyl)-7-isopropoxy-6-methoxy-1,4-dihydro-2H-isoquinolin-3-one]
98 nM	COc1cc2c(cc1OC(C)C)[C@H](c1ccc(Cl)cc1)N(c1ccc([C@](C)(O)C3CC4CCCC(C3)S4(=O)=O)cc1)C(=O)C2 (stereo partly drawn) [Example 176, (S)-1-(4-Chloro-phenyl)-2-{4-[(R)-1-(9,9-dioxo-9-thia-bicyclo[3.3.1]non-3-yl)-1-hydroxy-ethyl]-phenyl}-7-isopropoxy-6-methoxy-1,4-dihydro-2H-isoquinolin-3-one]
1.15 nM	COc1cc2c(cc1OC(C)C)[C@H](c1ccc(Cl)cc1)N(c1ccc([C@@](C)(O)C3CC4CCCC(C3)S4(=O)=O)cc1)C(=O)C2 (stereo partly drawn) [Example 177, (S)-1-(4-Chloro-phenyl)-2-{4-[(S)-1-(9,9-dioxo-9-thia-bicyclo[3.3.1]non-3-yl)-1-hydroxy-ethyl]-phenyl}-7-isopropoxy-6-methoxy-1,4-dihydro-2H-isoquinolin-3-one]
